PMC9090415, “Discovery of small molecule inhibitors of Plasmodium falciparum apicoplast DNA polymerase” (Journal of Enzyme Inhibition and Medicinal Chemistry, 2022)

Target: P. falciparum apicoplast DNA polymerase (Pf-apPOL) (Plasmodium falciparum, UniProt Q8ILY1)
Assay: Fluorescence-based high-throughput DNA polymerase assay (molecular beacon), primary screen and dose-response
Type: biochemical
Description: The HT assay employs a molecular beacon, a stem-loop DNA template with a Cy3 dye and the Black Hole Quencher on the 3′ and 5′ ends of the DNA, respectively. Pf-apPOL concentration is based on a calculated absorptivity of ε280 = 56750 M^−1 cm^−1. Reactions were carried out at 25 °C, using Corning 3575 […] (well-volume, 20 µL). Assays testing for compound inhibition composed of reaction buffer (pH 7.9 in 50 mM potassium acetate, 20 mM Tris-acetate and 10 mM magnesium acetate), Pf-apPOL (20 nM), DNA substrate (20 nM), dNTPs (6 µM), and compound (10 µM in DMSO). The DNA and nucleotide substrates (dNTPs) were at concentrations of 20 nM and 6 µM, respectively, in the assay. Pf-apPOL was incubated in the reaction buffer with dNTPs and the compound of interest (10 µM, in the assay) at 25 °C for 10 min. The DNA substrate was then added and the reaction was allowed to proceed for 90 min at 25 °C.
Each assay plate contained 16 negative controls (no Pf-apPOL, DMSO present) and 16 positive controls (Pf-apPOL present, no DMSO). The fluorescence of each well was determined using a BioTek Synergy Neo fluorescence plate reader using excitation and emission wavelengths of 555 and 570 nm, respectively.
In the above, Min is the average of fluorescence emission of the negative controls (substrate only), Max the average fluorescence emission from the positive controls (enzyme + substrate), and Test the emission from the assays in the presence of compounds (enzyme + compound + substrates). […] […] The IC50 of each compound was determined using Equation (2): (2) IC50= Vmax/(1+ (I/IC50)^n)
In the above, n measures cooperativity, with n > 1 indicating synergistic binding of more than a single molecule of the compound.
To identify apPOL inhibitors we utilised our previously developed high-throughput DNA polymerase assay. The HT assay is based on a molecular beacon DNA template that forms a stem-loop with a Cy3 dye and the Black Hole Quencher on the 3′ and 5′ ends of the DNA, respectively. DNA polymerase activity extends an annealed primer through the stem region, displacing the fluorophore from the quencher, thereby increasing its fluorescence (Figure 1(A)). The assay accurately recapitulates the kinetic behaviour of apPOL, as measured through more conventional low-throughput gel-based assays. The Z′ factor for the assay described here was 0.9 across all plates (data not shown).
Figure 1. High-throughput screening. (A) The fluorescent-based DNA polymerase assay used to screen the compound libraries. The DNA template strand is a hairpin loop with a primer annealed to the loop. The 3’ end of the primer is 11 bases away from the 6 bp duplex. Strand displacement activity of the DNA polymerase separates the Cy3 dye from the Black hole quencher leading to an increase in fluorescent signal. (B) The high-throughput assay workflow. The DNA polymerase is incubated with […] compound for 10 min prior to addition of the hairpin substrate. The reaction is quenched at 3 different time points and the fluorescent signal is measured and % inhibition is determined using the provided equation.

[1] = DRC-1; concentration 80 (unit not given); 10'
[2] = primary screen value of the 186 hits; unit not given; 90 min, 10 µM
[3] = primary screen value; head prints only 'DNA Pol'; 90 min, 10 µM
[4] = supplemental file 2, sheet IC50 nontoxic compounds; Pf-apPOL

Chain of P. falciparum apicoplast DNA polymerase (Pf-apPOL) (Q8ILY1 entry or part of it): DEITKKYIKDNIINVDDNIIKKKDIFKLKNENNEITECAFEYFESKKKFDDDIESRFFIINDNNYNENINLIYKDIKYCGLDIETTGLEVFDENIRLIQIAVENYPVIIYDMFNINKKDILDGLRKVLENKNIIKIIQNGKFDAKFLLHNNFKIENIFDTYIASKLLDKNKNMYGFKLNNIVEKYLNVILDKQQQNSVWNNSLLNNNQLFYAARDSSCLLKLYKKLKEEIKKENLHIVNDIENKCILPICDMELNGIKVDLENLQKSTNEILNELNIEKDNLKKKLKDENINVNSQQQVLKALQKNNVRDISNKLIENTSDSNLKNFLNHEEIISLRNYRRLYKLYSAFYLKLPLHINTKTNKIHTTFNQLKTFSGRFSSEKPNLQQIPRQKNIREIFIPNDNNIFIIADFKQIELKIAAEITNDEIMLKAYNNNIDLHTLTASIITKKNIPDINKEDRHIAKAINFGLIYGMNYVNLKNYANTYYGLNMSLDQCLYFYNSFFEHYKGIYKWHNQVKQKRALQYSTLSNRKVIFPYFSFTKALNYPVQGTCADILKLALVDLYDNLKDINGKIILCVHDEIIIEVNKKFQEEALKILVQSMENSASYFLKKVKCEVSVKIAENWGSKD

## O=C(O)c1cc([N+](=O)[O-])c(N2CCN(c3cccc(C(F)(F)F)c3)CC2)c([N+](=O)[O-])c1 [KU0076747]
DRC-1; concentration 2.5; 10'
  % inhibition Apo pol 10': 9.057%
DRC-1; concentration 2.5; 90'
  % inhibition Apol 90': 2.381%
DRC-1; concentration 2.5; 180'
  % inhibition apPOL 180': -1.314%
DRC-1; concentration 5; 10'
  % inhibition Apo pol 10': 24.3374%
DRC-1; concentration 5; 90'
  % inhibition Apol 90': 17.3572%
DRC-1; concentration 5; 180'
  % inhibition apPOL 180': 9.492%
DRC-1; concentration 10; 10'
  % inhibition Apo pol 10': 20.6042%
DRC-1; concentration 10; 90'
  % inhibition Apol 90': 12.0526%
DRC-1; concentration 10; 180'
  % inhibition apPOL 180': 7.5333%
DRC-1; concentration 20; 10'
  % inhibition Apo pol 10': 54.2328%
DRC-1; concentration 20; 90'
  % inhibition Apol 90': 47.5478%
DRC-1; concentration 20; 180'
  % inhibition apPOL 180': 35.8091%
DRC-1; concentration 40; 10'
  % inhibition Apo pol 10': 87.2694%
DRC-1; concentration 40; 90'
  % inhibition Apol 90': 81.5158%
DRC-1; concentration 40; 180'
  % inhibition apPOL 180': 74.4081%
[1]
  % inhibition Apo pol 10': 98.3006%
DRC-1; concentration 80; 90'
  % inhibition Apol 90': 92.5623%
DRC-1; concentration 80; 180'
  % inhibition apPOL 180': 89.3704%
DRC-2; 5'; concentration 10
  % inhibition Apo pol 5': 10%
DRC-2; 40'; concentration 2.5
  % inhibition Apol 40': 10%
DRC-2; 40'; concentration 40
  % inhibition Apol 40': 63%
DRC-2; 40'; concentration 80
  % inhibition Apol 40': 75%
DRC-2; 90'; concentration 2.5
  % inhibition ApPOL 90': 10%
DRC-2; 90'; concentration 40
  % inhibition ApPOL 90': 63%
DRC-2; 180'; concentration 80
  % inhibition apPOL 180': 75%
DRC-2; concentration 2.5; 5'
  % inhibition Apo pol 5': 9%
DRC-2; concentration 2.5; 40'
  % inhibition Apol 40': 10%
DRC-2; concentration 2.5; 90'
  % inhibition ApPOL 90': 10%
DRC-2; concentration 2.5; 180'
  % inhibition apPOL 180': 5%
DRC-2; concentration 5; 5'
  % inhibition Apo pol 5': 16%
DRC-2; concentration 5; 40'
  % inhibition Apol 40': 17%
DRC-2; concentration 5; 90'
  % inhibition ApPOL 90': 15%
DRC-2; concentration 5; 180'
  % inhibition apPOL 180': 8.45%
DRC-2; concentration 10; 5'
  % inhibition Apo pol 5': 10%
DRC-2; concentration 10; 40'
  % inhibition Apol 40': 8.56%
DRC-2; concentration 10; 90'
  % inhibition ApPOL 90': 8%
DRC-2; concentration 10; 180'
  % inhibition apPOL 180': 2.65%
DRC-2; concentration 20; 5'
  % inhibition Apo pol 5': 20%
DRC-2; concentration 20; 40'
  % inhibition Apol 40': 22%
DRC-2; concentration 20; 90'
  % inhibition ApPOL 90': 21%
DRC-2; concentration 20; 180'
  % inhibition apPOL 180': 12%
DRC-2; concentration 40; 5'
  % inhibition Apo pol 5': 54%
DRC-2; concentration 40; 40'
  % inhibition Apol 40': 63%
DRC-2; concentration 40; 90'
  % inhibition ApPOL 90': 63%
DRC-2; concentration 40; 180'
  % inhibition apPOL 180': 56%
DRC-2; concentration 80; 5'
  % inhibition Apo pol 5': 64%
DRC-2; concentration 80; 40'
  % inhibition Apol 40': 75%
DRC-2; concentration 80; 90'
  % inhibition ApPOL 90': 77%
DRC-2; concentration 80; 180'
  % inhibition apPOL 180': 75%
[2]
  DNA Pol: 52
[3]
  DNA Pol: 52

## O=C(Nc1c2c(nn1-c1ccccc1)CSC2)c1ccco1 [KU0055213]
DRC-1; concentration 2.5; 10'
  % inhibition Apo pol 10': 28.0848%
DRC-1; concentration 2.5; 90'
  % inhibition Apol 90': 10.2281%
DRC-1; concentration 2.5; 180'
  % inhibition apPOL 180': -1.233%
DRC-1; concentration 5; 10'
  % inhibition Apo pol 10': 39.8975%
DRC-1; concentration 5; 90'
  % inhibition Apol 90': 17.5159%
DRC-1; concentration 5; 180'
  % inhibition apPOL 180': 1.991%
DRC-1; concentration 10; 10'
  % inhibition Apo pol 10': 66.5971%
DRC-1; concentration 10; 90'
  % inhibition Apol 90': 43.2893%
DRC-1; concentration 10; 180'
  % inhibition apPOL 180': 23.4061%
DRC-1; concentration 20; 10'
  % inhibition Apo pol 10': 82.6519%
DRC-1; concentration 20; 90'
  % inhibition Apol 90': 64.6698%
DRC-1; concentration 20; 180'
  % inhibition apPOL 180': 46.0885%
DRC-1; concentration 40; 10'
  % inhibition Apo pol 10': 90.9141%
DRC-1; concentration 40; 90'
  % inhibition Apol 90': 82.7699%
DRC-1; concentration 40; 180'
  % inhibition apPOL 180': 72.6518%
[1]
  % inhibition Apo pol 10': 92.3383%
DRC-1; concentration 80; 90'
  % inhibition Apol 90': 91.2919%
DRC-1; concentration 80; 180'
  % inhibition apPOL 180': 88.3514%
DRC-2; 5'; concentration 2.5
  % inhibition Apo pol 5': 24%
DRC-2; 5'; concentration 5
  % inhibition Apo pol 5': 37%
DRC-2; 5'; concentration 40
  % inhibition Apo pol 5': 59%
DRC-2; 5'; concentration 80
  % inhibition Apo pol 5': 59%
DRC-2; 40'; concentration 20
  % inhibition Apol 40': 59%
DRC-2; 40'; concentration 40
  % inhibition Apol 40': 70%
DRC-2; 90'; concentration 10
  % inhibition ApPOL 90': 37%
DRC-2; 90'; concentration 40
  % inhibition ApPOL 90': 70%
DRC-2; 180'; concentration 10
  % inhibition apPOL 180': 24%
DRC-2; concentration 2.5; 5'
  % inhibition Apo pol 5': 24%
DRC-2; concentration 2.5; 40'
  % inhibition Apol 40': 21%
DRC-2; concentration 2.5; 90'
  % inhibition ApPOL 90': 17%
DRC-2; concentration 2.5; 180'
  % inhibition apPOL 180': 9%
DRC-2; concentration 5; 5'
  % inhibition Apo pol 5': 37%
DRC-2; concentration 5; 40'
  % inhibition Apol 40': 36%
DRC-2; concentration 5; 90'
  % inhibition ApPOL 90': 32%
DRC-2; concentration 5; 180'
  % inhibition apPOL 180': 20%
DRC-2; concentration 10; 5'
  % inhibition Apo pol 5': 44%
DRC-2; concentration 10; 40'
  % inhibition Apol 40': 42%
DRC-2; concentration 10; 90'
  % inhibition ApPOL 90': 37%
DRC-2; concentration 10; 180'
  % inhibition apPOL 180': 24%
DRC-2; concentration 20; 5'
  % inhibition Apo pol 5': 52%
DRC-2; concentration 20; 40'
  % inhibition Apol 40': 59%
DRC-2; concentration 20; 90'
  % inhibition ApPOL 90': 57%
DRC-2; concentration 20; 180'
  % inhibition apPOL 180': 49%
DRC-2; concentration 40; 5'
  % inhibition Apo pol 5': 59%
DRC-2; concentration 40; 40'
  % inhibition Apol 40': 70%
DRC-2; concentration 40; 90'
  % inhibition ApPOL 90': 70%
DRC-2; concentration 40; 180'
  % inhibition apPOL 180': 65%
DRC-2; concentration 80; 5'
  % inhibition Apo pol 5': 59%
DRC-2; concentration 80; 40'
  % inhibition Apol 40': 75%
DRC-2; concentration 80; 90'
  % inhibition ApPOL 90': 77%
DRC-2; concentration 80; 180'
  % inhibition apPOL 180': 78%
[2]
  DNA Pol: 50
[3]
  DNA Pol: 50

## CCN1C(=O)C(=Cc2cccc(OC)c2O)SC1=S [Molecule 78]
[4]
  IC50: 35 µM

## O=C1N=C(Nc2cccc(Cl)c2Cl)S/C1=C\c1ccco1 [Molecule 3]
[4]
  IC50: 4.99 µM

## O=C(Cn1ccc2c(=O)[nH]ccc21)Nc1ccc(Cl)cc1 [Molecule 36]
[4]
  IC50: 12.8 µM
